Experimental findings from paper PMC8553517 (ACS infectious diseases, 2021) are described below.

By IC50 is commonly meant the midpoint of a concentration-inhibition curve. A word on the amount remaining: it is the share of the starting amount still present when the sample was taken. A lower amount remaining goes with a greater loss. What is called inhibition is the drop in the measured response relative to a control, in per cent.

One series relates to HepG2 cells. Briefly: HepG2 toxicity assay. It is filed as cell-based. As to conditions: for IC50: Homo sapiens, HepG2, 72 h, read-out: IC50 against HepG2.
The subject of another series is J774 macrophages. In words: J774 macrophage toxicity assay. It counts as cell-based, mouse. Particulars: for IC50: Mus musculus, J774, read-out: IC50 against J774 macrophages.
Series [1] deals with intracellular L. donovani. In words: L. donovani-infected macrophage assay. It counts as cell-based, Leishmania donovani. As to conditions: for IC50: read-out: IC50 against L. donovani; for inhibition at 50 µM: read-out: Inhibition of parasitemia at 50 μM, 50 μM.
For series [2], the target named is recombinant L. donovani CYP51 (Leishmania donovani, UniProt A0A3S7WRS7). Briefly: Fluorescence-based L. donovani CYP51 inhibition assay. It counts as biochemical.
Series [3] in a line: Microsomal stability, human liver microsomes. It counts as in vitro ADME. As to conditions: for remaining at 1 h, 3 μM: human, liver microsomes. Background: Liver microsomes are vesicles of endoplasmic reticulum, rich in cytochrome P450 enzymes.
Series [4] is described as follows: Microsomal stability, mouse liver microsomes. It is filed as in vitro ADME. As to conditions: for remaining at 1 h, 3 μM: mouse, liver microsomes.
Where [5] appears, read: Leishmania donovani, Macrophage.
Where [6] appears, read: Leishmania donovani, Macrophage, intracellular L. donovani, mean ± S.E.M., n=3.
Setting [7] is: substrate 3 μM, LC-MS detection.

Bounds are passed on as bounds.

For the molecule `CCOc1cc(NC(=N)c2ccccn2)ccc1OCCCCCCCCn1ccnc1` [Compound 17b, N-(4-((8-(1H-imidazol-1-yl)octyl)oxy)3-ethoxyphenyl) picolinimidamide], the half-maximal inhibitory concentration (IC50) with HepG2 cells was 13 µM; in the series on J774 macrophages, 9 ± 1.3 µM; in series [1] (setting [5]), 1.9 ± 0.3 µM; in series [2], 0.53 ± 0.02 µM.
For `N=C(Nc1ccc(OCCCCn2ccnc2)cc1)c1ccccn1` [Compound 9d, N-(4-(4-(1H-imidazol-1-yl)butoxy)phenyl) picolinimidamide] the same measures were over 20 µM, over 50 µM, 18 ± 3 µM and 6.4 ± 0.1 µM.
For the molecule `N=C(NCCCCCCCCn1ccnc1)c1ccccn1` [Compound 28, N-(8-(1H-imidazol-1-yl)octyl)picolinimidamide], the IC50 (in the series with HepG2 cells; in series [1] (setting [5])) was over 100 µM in each case.
With `CCN(CC)CCCC(C)Nc1c2ccc(Cl)cc2nc2ccc(OC)cc12` (centres unmarked) [Quinacrine, reference compound], the IC50 with HepG2 cells was 5.5 ± 0.7 µM.
In the case of `COc1cc(OCCCCCCCCn2ccnc2)ccc1NC(=N)c1ccccn1` [Compound 24a, N-(4-((8-(1H-imidazol-1-yl)octyl)oxy)-2-methoxyphenyl) picolinimidamide], the amount remaining at 1 h, 3 μM in series [3] and in series [4] was over 80% each time. Besides, the IC50 with HepG2 cells amounted to 16 ± 2 µM; in the series with J774 macrophages, 9.3 ± 0.5 µM; in series [1] (setting [5]), 1.5 ± 0.4 µM; in series [2] it was 0.36 ± 0.01 µM.
On to `COc1cccc2c1C(=O)c1c(O)c3c(c(O)c1C2=O)C[C@@](O)(C(=O)CO)C[C@@H]3O[C@H]1C[C@H](N)[C@H](O)[C@H](C)O1` [Doxorubicin, reference compound], for which the IC50 in the series on HepG2 cells is 0.2 ± 0.02 µM.
With `N=C(Nc1ccc(OCCCCCCCCn2ccnc2)c(Cl)c1)c1ccccn1` [Compound 9i, N-(4-((8-(1H-imidazol-1-yl)octyl)oxy)-3-chlorophenyl) picolinimidamide], the IC50 stood at 7.7 ± 1.5 µM in the series with HepG2 cells, 6.8 ± 0.7 µM in the series on J774 macrophages, 1.3 ± 0.2 µM in series [1] (setting [5]) and 0.18 ± 0.01 µM in series [2]. Also, the “Fold more potent as inhibitor of L. donovani CYP51 compared to 9h” value in series [2] (compared to 9h) is recorded as “about 2 fold”.
`CC(C)Oc1cc(NC(=N)c2ccccn2)ccc1-c1ccc(-c2ccc(NC(=N)c3ccccn3)cc2OC(C)C)o1` [Compound 1, reference compound]: the “Inhibition of L. donovani CYP51 (in words)” value in series [2] (at concentrations 5–10 times greater than their IC50 against intracellular L. donovani, M.Z. Wang, unpublished observations) is recorded as “weak inhibitors”.
Consider `N=C(Nc1ccc(OCCn2cncn2)cc1)c1ccccn1` [Compound 9b, N-(4-(2-(1H-1,2,4-triazol-1-yl)ethoxy)phenyl) picolinimidamide], for which the IC50 with HepG2 cells was over 100 µM; with J774 macrophages, over 50 µM; in series [1] (setting [5]), over 100 µM; in series [2], 35 ± 2 µM.
Regarding `N=C(Nc1ccc(OCCCCCCn2ccnc2)cc1)c1ccccn1` [Compound 9g, N-(4-((6-(1H-imidazol-1-yl)hexyl)oxy)phenyl) picolinimidamide], the half-inhibitory concentration (IC50) in the series on HepG2 cells is 20 ± 3 µM; in the series on J774 macrophages, over 40 µM; in series [1] (setting [5]), 8.8 ± 0.6 µM; in series [2], 1.3 ± 0.1 µM.
For `N=C(Nc1ccc(OCCCCCn2ccnc2)cc1)c1ccccn1` [Compound 9f, N-(4-((5-(1H-imidazol-1-yl)pentyl)oxy)phenyl) picolinimidamide] the same measures were 42 ± 4 µM, over 50 µM, 13 ± 5 µM and 4.8 ± 0.1 µM.
In the case of `CCOc1cc(OCCCCCCCCn2ccnc2)ccc1NC(=N)c1ccccn1` [Compound 24b, N-(4-((8-(1H-imidazol-1-yl)octyl)oxy)-2-ethoxyphenyl) picolinimidamide], the values for the fraction remaining at 1 h, 3 μM in series [3] and in series [4] were over 80% and 100%, respectively. Besides, the IC50 in the series with HepG2 cells was found to be 12 ± 2 µM; with J774 macrophages, 6.8 ± 0.1 µM; in series [1] (setting [5]), 0.73 ± 0.15 µM; in series [2], 0.34 ± 0.01 µM.
Take `N=C(Nc1ccc(OCCCn2ccnc2)cc1)c1ccccn1` [Compound 9c, N-(4-(3-(1H-imidazol-1-yl)propoxy)phenyl) picolinimidamide]: the IC50 is over 50 µM in the series on HepG2 cells, over 50 µM with J774 macrophages, over 25 µM in series [1] (setting [5]) and 22 µM in series [2].
Take `CC[C@@H]([C@H](C)O)n1ncn(-c2ccc(N3CCN(c4ccc(OC[C@@H]5CO[C@@](Cn6cncn6)(c6ccc(F)cc6F)C5)cc4)CC3)cc2)c1=O` [Posaconazole, posaconazole, reference compound]: in series [1] (Leishmania donovani, Macrophage, read-out: Inhibition of parasitemia at 7.5 μM, 7.5 μM, intracellular L. donovani, mean ± S.E.M., n=3), the inhibition at 7.5 µM was 47 ± 2%. For the same molecule, in series [2], the IC50 was found to be 0.059 ± 0.001 µM.
As for `C[C@@H]1[C@H](O)[C@@H](C)/C=C/C=C/C=C/C=C/C=C/C=C/C=C/[C@H](O[C@@H]2O[C@H](C)[C@@H](O)[C@H](N)[C@@H]2O)C[C@@H]2O[C@](O)(C[C@@H](O)C[C@@H](O)[C@H](O)CC[C@@H](O)C[C@@H](O)CC(=O)O[C@H]1C)C[C@H](O)[C@H]2C(=O)O` [Amphotericin B, reference compound], the IC50 in series [1] (setting [5]) was determined as 0.045 ± 0.003 µM.
Consider `N=C(Nc1ccc(OCCn2ccnc2)cc1)c1ccccn1` [Compound 9a, N-(4-(2-(1H-imidazol-1-yl)ethoxy)phenyl) picolinimidamide], for which the IC50 is over 50 µM with HepG2 cells, over 50 µM in the series on J774 macrophages, over 50 µM in series [1] (setting [5]) and 21 ± 1 µM in series [2].
Regarding `N=C(Nc1ccc(OCCCCn2cncn2)cc1)c1ccccn1` [Compound 9e, N-(4-(4-(1H-1,2,4-triazol-1-yl)butoxy)phenyl) picolinimidamide], the IC50 in the series with HepG2 cells is over 100 µM; in the series with J774 macrophages, over 50 µM; in series [1] (setting [5]) it was over 100 µM; in series [2] it was 89 ± 4 µM.
As to `CC(=O)N1CCN(c2ccc(OCC3COC(Cn4ccnc4)(c4ccc(Cl)cc4Cl)O3)cc2)CC1` (centres unmarked) [Ketoconazole, ketoconazole, reference compound], in series [1] (setting [6]), the inhibition at 50 µM is 50 ± 7%. Besides, the IC50 in series [2] stood at 0.048 ± 0.004 µM.
Regarding `N=C(Nc1ccc(OCCCCCCCCCCn2ccnc2)cc1)c1ccccn1` [Compound 9l, N-(4-((10-(1H-imidazol-1-yl)decyl)oxy)phenyl) picolinimidamide], the “Human liver microsome t1/2” value in series [3] (setting [7]) came out at 0.95 h. The IC50 with HepG2 cells was found to be 6.9 ± 1 µM; in the series with J774 macrophages, 4.9 ± 0.9 µM; in series [1] (setting [5]), 1.4 ± 0.2 µM; in series [2], 0.22 ± 0.01 µM. The “Mouse liver microsome t1/2” value in series [4] (setting [7]) was 1.13 h.
In the case of `CC(C)Oc1cc(NC(=N)c2ccccn2)ccc1OCCCCCCCCn1ccnc1` [Compound 17c, N-(4-((8-(1H-imidazol-1-yl)octyl)oxy)3-isopropoxyphenyl) picolinimidamide], the amount remaining at 1 h, 3 μM in series [3] is over 80%; in series [4] it was 100%. Also, the IC50 in the series on HepG2 cells was determined as 18 ± 1 µM; in the series with J774 macrophages, 7.8 ± 0.3 µM; in series [1] (setting [5]), 0.97 ± 0.07 µM; in series [2], 0.29 ± 0.01 µM.
Consider `OC(Cn1cncn1)(Cn1cncn1)c1ccc(F)cc1F` [Fluconazole, fluconazole, reference compound], for which, in series [1] (setting [6]), the inhibition at 50 µM was 16 ± 3%. Also, the IC50 in series [2] is 0.96 ± 0.03 µM.
With `COc1cc([C@@H]2c3cc4c(cc3[C@H](O)[C@H]3COC(=O)[C@H]23)OCO4)cc(OC)c1OC` [Podophyllotoxin, reference compound], the IC50 in the series with J774 macrophages is 0.025 ± 0.001 µM.
As for `N=C(Nc1ccc(OCCCCCCCCn2ccnc2)cc1Cl)c1ccccn1` [Compound 9j, N-(4-((8-(1H-imidazol-1-yl)octyl)oxy)-2-chlorophenyl) picolinimidamide], the IC50 with HepG2 cells stood at 8.6 ± 1.2 µM; with J774 macrophages it was 8.6 ± 1.2 µM; in series [1] (setting [5]) it was 2.1 ± 0.2 µM; in series [2], 0.15 ± 0.01 µM. In series [2] (compared to 9h), the “Fold more potent as inhibitor of L. donovani CYP51 compared to 9h” value was “about 2 fold”.
`N=C(Nc1ccc(OCCCCCCCCn2ccnc2)cc1)c1ccccc1` [Compound 9n, N-(4-((8-(1H-imidazol-1-yl)octyl)oxy)phenyl)benzimidamide]: the IC50 in the series with HepG2 cells came out at 4.9 ± 1 µM; with J774 macrophages, 0.48 ± 0.02 µM; in series [1] (setting [5]), 1.2 ± 0.1 µM; in series [2], 0.34 ± 0.01 µM. Also, the “Increase in HepG2 activity compared to 9h” value with HepG2 cells (compared to 9h) was found to be 2.4 fold. In addition, the “Increase in potency against J774 cells compared to 9h” value with J774 macrophages (compared to 9h) is listed as 22 fold.
Turning to `N=C(Nc1ccc(OCCCCCCCCn2cccc2)cc1)c1ccccn1` [Compound 9m, N-(4-((8-(1H-pyrrol-1-yl)octyl)oxy)phenyl) picolinimidamide], the IC50 came out at 13 ± 2 µM in the series on HepG2 cells, 11 ± 1 µM in the series on J774 macrophages, 1.7 ± 0.3 µM in series [1] (setting [5]) and 14 ± 1 µM in series [2]. Further, the “Fold less active as a CYP51 inhibitor than 9h” value in series [2] (compared to 9h) amounted to 39 fold.
Consider `COc1cc(NC(=N)c2ccccn2)ccc1OCCCCCCCCn1ccnc1` [Compound 17a, N-(4-((8-(1H-imidazol-1-yl)octyl)oxy)3-methoxyphenyl) picolinimidamide], for which the fraction remaining at 1 h, 3 μM in series [3] and in series [4] was 100% throughout. The IC50 in the series with HepG2 cells is 23 ± 2 µM; with J774 macrophages it was 16 ± 1 µM; in series [1] (setting [5]), 2.2 ± 0.3 µM; in series [2], 0.57 ± 0.01 µM.
As to `N=C(Nc1ccc(OCCCCCCCCn2cncn2)cc1)c1ccccn1` [Compound 9k, N-(4-((8-(1H-1,2,4-triazol-1-yl)octyl)oxy)phenyl) picolinimidamide], the IC50 with HepG2 cells turned out to be 32 ± 5 µM; in the series on J774 macrophages it was 36 ± 1 µM; in series [2] it was 1.9 ± 0.1 µM. In series [1] (Leishmania donovani, Macrophage, read-out: Inhibition of parasitemia at 12.5 μM, 12.5 μM, intracellular L. donovani, mean ± S.E.M., n=3), the inhibition at 12.5 µM is about 50%. In series [1] (compared with 9h), the “Decrease in potency against intracellular L. donovani compared with 9h” value is given as over 10 fold.
